Assay results reported in PubChem BioAssay (NCI).
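A five-concentration, 48-hour dose response in 96-well plates underlies each endpoint, interpolated linearly between surrounding concentrations. GI50 marks 50% less growth. The concentration for full growth arrest is given as TGI.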

Key:
Experiment in all cases: NCI-60 cell line screen, 48 h
[1] = tested on: 786-0 renal
[2] = tested on: A498 renal
[3] = tested on: A549 NSCLC
[4] = tested on: ACHN renal
[5] = tested on: BT-549 breast
[6] = tested on: CAKI-1 renal
[7] = tested on: CCRF-CEM leukemia
[8] = tested on: COLO 205 colon
[9] = tested on: DU-145 prostate
[10] = tested on: HCC-2998 colon
[11] = tested on: HCT-116 colon
[12] = tested on: HCT-15 colon
[13] = tested on: HL-60(TB) leukemia
[14] = tested on: HOP-62 NSCLC
[15] = tested on: HOP-92 NSCLC
[16] = tested on: HS 578T breast
[17] = tested on: HT29 colon
[18] = tested on: IGROV1 ovarian
[19] = tested on: KM12 colon
[20] = tested on: LOX IMVI melanoma
[21] = tested on: M14 melanoma
[22] = tested on: MALME-3M melanoma
[23] = tested on: MCF7 breast
[24] = tested on: MDA-MB-231 breast
[25] = tested on: MDA-MB-435
[26] = tested on: MOLT-4 leukemia
[27] = tested on: NCI-H226 lung
[28] = tested on: NCI-H23 lung
[29] = tested on: NCI-H460 lung
[30] = tested on: NCI-H522 lung
[31] = tested on: NCI/ADR-RES ovarian
[32] = tested on: OVCAR-3 ovarian
[33] = tested on: OVCAR-4 ovarian
[34] = tested on: OVCAR-5 ovarian
[35] = tested on: OVCAR-8 ovarian
[36] = tested on: PC-3 prostate
[37] = tested on: RPMI-8226 leukemia
[38] = tested on: RXF 393 renal
[39] = tested on: SF-268 CNS
[40] = tested on: SF-295 CNS
[41] = tested on: SF-539 CNS
[42] = tested on: SK-MEL-2 melanoma
[43] = tested on: SK-MEL-28 melanoma
[44] = tested on: SK-MEL-5 melanoma
[45] = tested on: SK-OV-3 ovarian
[46] = tested on: SN12C renal
[47] = tested on: SNB-19 CNS
[48] = tested on: SNB-75 CNS
[49] = tested on: SR leukemia
[50] = tested on: SW-620 colon
[51] = tested on: T-47D breast
[52] = tested on: TK-10 renal
[53] = tested on: U251 CNS
[54] = tested on: UACC-257 melanoma
[55] = tested on: UACC-62 melanoma
[56] = tested on: UO-31 renal

SMILES: O=C(N/N=C/c1ccc(O)cc1O)c1cccnc1
- GI50 [1]: 4.28 µM
- TGI [1]: > 100 µM
- GI50 [2]: 11.5 µM
- TGI [2]: 84.1 µM
- GI50 [3]: 4.66 µM
- TGI [3]: > 100 µM
- GI50 [4]: 1.47 µM
- TGI [4]: > 100 µM
- GI50 [5]: 7.06 µM
- TGI [5]: 81.6 µM
- GI50 [6]: 1.76 µM
- TGI [6]: 45.6 µM
- GI50 [7]: 0.971 µM
- TGI [7]: > 100 µM
- GI50 [8]: 2.8 µM
- TGI [8]: > 100 µM
- GI50 [9]: 3.45 µM
- TGI [9]: > 100 µM
- GI50 [10]: 4.72 µM
- TGI [10]: > 100 µM
- GI50 [11]: 0.876 µM
- TGI [11]: > 100 µM
- GI50 [12]: 0.614 µM
- TGI [12]: > 100 µM
- GI50 [13]: 3.74 µM
- TGI [13]: > 100 µM
- GI50 [14]: 13.4 µM
- TGI [14]: > 100 µM
- GI50 [15]: 2.09 µM
- TGI [15]: 43.5 µM
- GI50 [16]: 7.26 µM
- TGI [16]: 82.1 µM
- GI50 [17]: 7.52 µM
- TGI [17]: > 100 µM
- GI50 [18]: 0.776 µM
- TGI [18]: 23.6 µM
- GI50 [19]: 3.62 µM
- TGI [19]: > 100 µM
- GI50 [20]: 1.84 µM
- TGI [20]: > 100 µM
- GI50 [21]: 2.8 µM
- TGI [21]: 19.6 µM
- GI50 [22]: 5.16 µM
- TGI [22]: 39.2 µM
- GI50 [23]: 1.94 µM
- TGI [23]: 7.5 µM
- GI50 [24]: 3.68 µM
- TGI [24]: > 100 µM
- GI50 [25]: 7.52 µM
- TGI [25]: > 100 µM
- GI50 [26]: 3.1 µM
- TGI [26]: > 100 µM
- GI50 [27]: 4.58 µM
- TGI [27]: 84.3 µM
- GI50 [28]: 5.92 µM
- TGI [28]: > 100 µM
- GI50 [29]: 1.18 µM
- TGI [29]: > 100 µM
- GI50 [30]: 3.21 µM
- TGI [30]: > 100 µM
- GI50 [31]: 3.26 µM
- TGI [31]: > 100 µM
- GI50 [32]: 0.474 µM
- TGI [32]: 29.4 µM
- GI50 [33]: 0.692 µM
- TGI [33]: 11.9 µM
- GI50 [34]: 14 µM
- TGI [34]: > 100 µM
- GI50 [35]: 2.5 µM
- TGI [35]: 96.3 µM
- GI50 [36]: 4.14 µM
- TGI [36]: 46.9 µM
- GI50 [37]: 4.13 µM
- TGI [37]: > 100 µM
- GI50 [38]: 3.74 µM
- TGI [38]: > 100 µM
- GI50 [39]: 2.22 µM
- TGI [39]: 59.4 µM
- GI50 [40]: 6.66 µM
- TGI [40]: > 100 µM
- GI50 [41]: 2.64 µM
- TGI [41]: 19.3 µM
- GI50 [42]: 13.5 µM
- TGI [42]: 60.8 µM
- GI50 [43]: 3.59 µM
- TGI [43]: 62.6 µM
- GI50 [44]: 3.3 µM
- TGI [44]: 27.6 µM
- GI50 [45]: 11.4 µM
- TGI [45]: > 100 µM
- GI50 [46]: 3.58 µM
- TGI [46]: 69 µM
- GI50 [47]: 5.8 µM
- TGI [47]: > 100 µM
- GI50 [48]: 1.15 µM
- TGI [48]: 26.1 µM
- GI50 [49]: 3.21 µM
- TGI [49]: > 100 µM
- GI50 [50]: 4.34 µM
- TGI [50]: > 100 µM
- GI50 [51]: 3.45 µM
- TGI [51]: 86 µM
- GI50 [52]: 2.52 µM
- TGI [52]: > 100 µM
- GI50 [53]: 2.42 µM
- TGI [53]: 41.5 µM
- GI50 [54]: 3.33 µM
- TGI [54]: 22.5 µM
- GI50 [55]: 2.38 µM
- TGI [55]: 17.5 µM
- GI50 [56]: 1.46 µM
- TGI [56]: > 100 µM
